Tests used:
[1] = system: MCF-7 cells; assay: Acridine orange/ethidium bromide staining, morphology; type: cell-based, human; settings: 5 µM, 24 h, MCF-7, AO/EB staining
Method: To display morphological changes in the MCF-7 cells after 24 h of treatment by lead compound Les-6416 and the positive control doxorubicin, we performed acridine orange and ethidium bromide staining. MCF-7 cells were seeded in 6-well plates at 1 × 10^5 cells per well in 2 mL medium, followed by incubation for 24 h. Afterwards, the cells were treated with lead compound Les-6416 at a concentration equal to 5 µM and DOX in a concentration equal to 0.5 µM. Next, cells were washed with 1 mL of PBS per well. Subsequently, double staining was performed using 10 µL of AO and EB, incubated at room temperature for 10 min. After that, cells were washed with PBS. Images were obtained with the use of a Nikon ECLIPSE Ti fluorescence microscope (Nikon, Tokyo, Japan). Images were analyzed using ImageJ software version 1.54k (Bethesda, MD, USA).
To analyze morphological changes in MCF-7 cells after 24 h of treatment, we performed the double staining with acridine orange and ethidium bromide. This method provides the capability to observe different stages of cell death depending on cell membrane integrity and chromatin condensation. Green fluorescence can be observed due to acridine orange staining, that penetrates all cells, while red coloring is contributed to ethidium bromide, which can only penetrate cells with injured cell membranes. […]

[2] = system: Melanoma; type: cell-based
[3] = system: T-47D; type: cell-based
[4] = system: CCRF-CEM; type: cell-based
[5] = system: NCI-H266; type: cell-based
[6] = system: SF-539; type: cell-based
[7] = system: ACHN; type: cell-based
[8] = system: OVCAR-5; type: cell-based
[9] = system: A498; type: cell-based
[10] = system: A549/ATCC; type: cell-based
[11] = system: BT-549; type: cell-based
[12] = system: IGROV1; type: cell-based
[13] = system: U251; type: cell-based
[14] = system: SR; type: cell-based
[15] = system: TK-10; type: cell-based
[16] = Homo sapiens, 48 h, read-out: LC50 (the source's name)

In the case of `COc1cc(NC2=NC(=O)C(=Cc3ccc4cc[nH]c4c3)S2)cc(OC)c1OC` [Les-6416, 5-((1H-Indol-6-yl)methylene)-2-((3,4,5-trimethoxyphenyl)amino)thiazol-4(5H)-one], the morphological changes [1] is reported as “cell shrinkage and chromatin condensation”.

For `COc1cc(NC2=NC(=O)C(=Cc3c[nH]c4ccccc34)S2)cc(OC)c1OC` [Les-6418, 5-((1H-Indol-3-yl)methylene)-2-((3,4,5-trimethoxyphenyl)amino)thiazol-4(5H)-one], the GI50 ([2]; Homo sapiens, Melanoma subpanel mean, read-out: MG_MID GI50) was 3 µM, the CC50 ([2]; Homo sapiens, Melanoma subpanel mean, read-out: MG_MID LC50) was 43.1 µM and the “MG_MID TGI” value ([2]; Melanoma subpanel mean) was 14.9 µM. For the same compound, the “SI (MG_MID TGI)” value ([2]; Melanoma subpanel, MG_MID_60/value) was 1.25, the TGI ([3]; 48 h) was 19.7 µM and the GI50 ([3]; Homo sapiens, T47D, 48 h) was 3.58 µM. For the same compound, the CC50 ([3]; Homo sapiens, T47D, 48 h, read-out: LC50 (the source's name)) was 61.2 µM, the “SI (TGI)” value ([3]; MG_MID_60/value) was 0.94 and the TGI ([4]; 48 h) was greater than 100 µM. For the same compound, the GI50 ([4]; Homo sapiens, 48 h) was 2.09 µM, the CC50 [4, 16] was greater than 100 µM and the “SI (TGI)” value ([4]; MG_MID_60/value) was 0.19. The GI50 ([5]; Homo sapiens, NCI-H266, 48 h) was 3.18 µM, the CC50 ([5]; Homo sapiens, NCI-H266, 48 h, read-out: LC50 (the source's name)) was 68.8 µM and the TGI ([5]; NCI-H266, 48 h) was 17.4 µM. The “SI (TGI)” value ([5]; NCI-H266, MG_MID_60/value) was 1.07, the GI50 ([6]; Homo sapiens, SF-539, 48 h) was 2.49 µM and the CC50 ([6]; Homo sapiens, SF-539, 48 h, read-out: LC50 (the source's name)) was 35.5 µM. For the same compound, the Growth % ([6]; SF-539, 10 μM, one dose, 48 h) was −85.30%, the TGI ([6]; SF-539, 48 h) was 9.95 µM and the “SI (TGI)” value ([6]; SF-539, MG_MID_60/value) was 1.87. For the same compound, the TGI ([7]; 48 h) was 12.0 µM, the GI50 ([7]; Homo sapiens, 48 h) was 3.2 µM and the CC50 [7, 16] was 36.1 µM. The “SI (TGI)” value ([7]; MG_MID_60/value) was 1.55, the GI50 ([8]; Homo sapiens, OVCAR-5, 48 h) was 4.58 µM and the LC50 (concentration killing 50% of cells) ([8]; Homo sapiens, OVCAR-5, 48 h) was 44.1 µM. The TGI ([8]; OVCAR-5, 48 h) was 17.7 µM, the “SI (TGI)” value ([8]; OVCAR-5, MG_MID_60/value) was 1.05 and the Growth % ([9]; A498, 10 μM, one dose, 48 h) was −76.12%. The TGI ([9]; A498, 48 h) was 24.6 µM, the “SI (TGI)” value ([9]; A498, MG_MID_60/value) was 0.76 and the GI50 ([9]; Homo sapiens, A498, 48 h) was 10.2 µM. For the same compound, the CC50 ([9]; Homo sapiens, A498, 48 h, read-out: LC50 (the source's name)) was 59.6 µM, the TGI ([10]; 48 h) was 16.5 µM and the GI50 ([10]; Homo sapiens, 48 h) was 2.84 µM. For the same compound, the LC50 ([10]; Homo sapiens, 48 h) was 73.6 µM, the “SI (TGI)” value ([10]; MG_MID_60/value) was 1.13 and the TGI ([11]; BT-549, 48 h) was 10.7 µM. The “SI (TGI)” value ([11]; BT-549, MG_MID_60/value) was 1.74, the GI50 ([11]; Homo sapiens, BT-549, 48 h) was 0.81 µM and the CC50 ([11]; Homo sapiens, BT-549, 48 h, read-out: LC50 (the source's name)) was 39.2 µM. It also gave a GI50 ([12]; Homo sapiens, IGROV-1, IGROV1, 48 h) of 4.91 µM, a CC50 ([12]; Homo sapiens, IGROV-1, IGROV1, 48 h, read-out: LC50 (the source's name)) of 57.2 µM and a TGI ([12]; IGROV1, 48 h) of 21.6 µM. For the same compound, the “SI (TGI)” value ([12]; IGROV1, MG_MID_60/value) was 0.86, the GI50 ([13]; Homo sapiens, U-251, U251, 48 h) was 3.27 µM and the CC50 ([13]; Homo sapiens, U-251, U251, 48 h, read-out: LC50 (the source's name)) was 54.7 µM. For the same compound, the TGI ([13]; U251, 48 h) was 15.7 µM, the “SI (TGI)” value ([13]; U251, MG_MID_60/value) was 1.18 and the Growth % ([13]; U-251, 10 μM, one dose, 48 h) was −79.79%. It also gave a TGI ([14]; 48 h) of 29.9 µM, a GI50 ([14]; Homo sapiens, 48 h) of 0.394 µM and a CC50 [14, 16] greater than 100 µM. For the same compound, the “SI (TGI)” value ([14]; MG_MID_60/value) was 0.62, the GI50 ([15]; Homo sapiens, TK-10, 48 h) was 8.56 µM and the CC50 ([15]; Homo sapiens, TK-10, 48 h, read-out: LC50 (the source's name)) was 55.6 µM. The TGI ([15]; TK-10, 48 h) was 22.8 µM and the “SI (TGI)” value ([15]; TK-10, MG_MID_60/value) was 0.82.

From paper PMC12190436, “5-Ene-2-arylaminothiazol-4(5H)-ones Induce Apoptosis in Breast Cancer Cells” (Cells, 2025)
